Source: patent US20260028364A1, “CATIONIC CHROMENONES AND THEIR USE IN ONCOLOGY” (FLORATEK PHARMA S.A., priority 2022, published 2026)

Assays:
NALM-6 = test: CellTiter-Glo cell viability, NALM-6; type: cell-based; settings: Homo sapiens; NALM-6 cells, 72 h with compound
Protocol: (§1) Antitumor activity against a panel of cancer cell lines Antitumor activity of the compounds was assessed by using the CellTiter-Glow® Luminescent Cell Viability assay (Promega #G7572) according to the manufacturer's instructions. The compounds were tested at 5 or 6 concentrations in 1:2 dilution increments (highest concentration 10 µM) in triplicate well conditions.
(§2) Tumor cells were grown at 37° C. in a humidified atmosphere with 5% CO2 in RPMI 1640 or DMEM medium, supplemented with 10% (v/v) fetal calf serum and 50 μg/ml gentamicin for up to 20 passages, and were passaged once or twice weekly. Cells were harvested using TrypLE or PBS buffer containing 1 mM EDTA, and the percentage of viable cells is determined using a cell counter.
(§3) Cells were harvested from exponential phase cultures, counted and plated in 96 well flat-bottom microtiter plates at a cell density depending on the cell line's growth rate (4,000-20,000 cells/well depending on the cell line's growth rate) in RPMI 1640 or DMEM medium supplemented with 10% (v/v) fetal calf serum and 50 μg/ml gentamicin (140 μl/well). Cultures were incubated at 37° C. and 5% CO2 in a humidified atmosphere. […] Viability of cells was quantified by the CellTiter-Glow® Luminescent Cell Viability assay (Promega #G7572). Luminescence was measured with the microplate luminometer (En Vision Perkin Elmer). […]

NCI-H1975 = test: CellTiter-Glo cell viability, NCI-H1975; type: cell-based; settings: Homo sapiens, H-1975 cells, 72 h with compound
Protocol: as §1, §2, §3

JAK/STAT = test: SelectScreen CellSensor pathway inhibition, JAK/STAT; type: cell-based; settings: Homo sapiens; ISRE-bla Jurkat, stimulus IFN-alpha
Protocol: (§4) Inhibition of various cellular pathways known to be involved in malignancy was tested using the SelectScreen Cell-based Pathway Profiling GeneBLAzer™ cell signaling pathway specific CellSensor™ cell lines ((Thermo Fisher). The assay is based on a beta-lactamase reporter activity which is modulated and can be measured quantitatively and selectively with the LiveBLAzer™-FRET B/G Loading Substrate. SelectScreen Cell-Based Pathway Profiling Service uses XLfit from IDBS. The dose response curve is curve fit to model number 205 (sigmoidal dose-response model). Custom logic was built by Thermo Fisher for the data analysis tool to address the different compound characteristics that can be observed with functional assays.
JAK/STAT—ISRE-bla HEK 293T—Inhibitor Screen, Activated by IFN-Alpha
ISRE-bla HEK 293T cells are thawed and resuspended in Assay Media (OPTI-MEM, 0.5% dialyzed FBS, 0.1 mM NEAA, 1 mM Sodium Pyruvate, 100 U/mL/[…] Pen/Strep) to a concentration of 625,000 cells/mL. 32 μL of cell suspension is added to each well of a 384-well TC-Treated assay plate. Cells in Assay Media are incubated for 16-24 hours in the plate at 37° C./5% CO2 in a humidified incubator. […] 4 μL of 10× control activator IFN-alpha at the pre-determined EC80 concentration is added to wells containing the control inhibitor or compounds. […] The plate is read on a fluorescence plate reader.

Wnt/Beta-Catenin = test: SelectScreen CellSensor pathway inhibition, Wnt/Beta-Catenin; type: cell-based; settings: Homo sapiens, HCT-116; LEF-TCF-bla HCT116, no stimulus (constitutively activated)
Protocol: as §4
Wnt/Beta-Catenin—LEF-TCF-bla HCT116—Inhibitor Screen, Constitutively Activated
LEF-TCF-bla HCT116 cells are thawed and resuspended in Assay Media (OPTI-MEM, 0.5% dialyzed FBS, 0.1 mM NEAA, 1 mM Sodium Pyruvate, 100 U/mL/100 μg/mL Pen/Strep) to a concentration of 312,500 cells/mL. 32 μL of cell suspension is added to each well of a 384-well Poly-D-Lysine assay plate. Cells in Assay Media are incubated for 16-24 hours in the plate at 37° C./5% CO2 in a humidified incubator. 4 μL of a 10× serial dilution of ICG-001 (control inhibitor starting concentration, 25,000 nM) or compounds are added to appropriate wells of the plate. […] The plate is read on a fluorescence plate reader.

[1] = test system: A2058 melanoma tumor cells; test: In vivo tumour inhibition, A2058 melanoma xenograft; design: species or system Balb-c/nude mouse
Protocol: The A2058 tumor cells were maintained in vitro in DMEM medium supplemented with 10% fetal bovine serum and 1% Anti-Anti at 37° C. in an atmosphere of 5% CO2 in air. The tumor cells were routinely subcultured twice weekly.
Each Balb-c/nude mouse was inoculated subcutaneously at the right flank with A2058 melanoma tumor cells (5×10^6+Matrigel) in 0.2 ml of PBS for tumor development. 10 animals per group were randomized when the average tumor volume reached 74 mm^3. Test compounds were prepared as DMSO stocks and diluted in the injection vehicle before administration. The treatment was administered every other day (QOD) as a peritumoral injection. Vehicle composition was 4% DMSO, 5% ethanol, 20% PEG200, 71% saline. Dosing volume for all groups: 5 mL/kg.
Tumor volume was measured twice weekly in two dimensions using a caliper, and the volume was expressed in mm^3 using the formula: V=0.5a×b^2 where a and b are the long and short diameters of the tumor, respectively. The tumor size was then used for calculations of T/C value: The T/C value (in percent) is an indication of antitumor effectiveness; T and Care the mean volumes of the treated and control groups, respectively, on a given day.
One-way ANOVA was performed to compare tumor volume among treated groups and vehicle group, all data were analyzed using GraphPad Prism 5.0. p<0.05 was considered to be statistically significant.

[2] = 16 mg/kg peritumoral QOD, 6 injections, day 20 after treatment start

IC50 (NCI-H1975): 140 nM
IC50 (JAK/STAT): 360 nM
IC50 (Wnt/Beta-Catenin): 970 nM
Compound: COc1ccc2c(=O)c(-c3ccc(CCCC[P+](c4ccccc4)(c4ccccc4)c4ccccc4)cc3)coc2c1OC.[Br-] [SND470, (4-(4-(7,8-Dimethoxy-4-oxo-4H-chromen-3-yl)phenyl)butyl)triphenylphosphonium bromide]
IC50 (NALM-6): 250 nM
T/C [1, 2]: 39.2%
TGI [1, 2]: 62.8%
Tumor Volume ([1]; 16 mg/kg peritumoral QOD, 6 injections, day 20 after treatment start, mean ± SEM): 886 ± 127 mm^3
activity in inhibiting A2058 melanoma cell line in vivo ([1]; nude mouse xenograft model of melanoma): significant activity
